pIC50: −log10 of the molar value.

In assay [1] the target is fatty acid amide hydrolase (FAAH) (Rattus norvegicus, UniProt P97612).
Assay [2] deals with nociceptive response to formalin injected into the rat paw. The experiment in a line: Formalin test, injection into the periaqueductal grey (PAG). The format is in vivo. An excerpt: (§1) The compounds of formula I are novel agents against […], acting by enhancing endocannabinoid levels (via FAAH inhibition) and at the same time by antagonizing TRPV1.
Assay [3] has as its system nocifensive response to formalin. As to the kind of experiment: Formalin test, injection into the paw. It is filed as in vivo. As to conditions: injected into the paw; counteracted by AM251 and occluded by capsazepine.
From the text: as §1

The subject of the next assay is anandamide levels. The experiment in a line: Anandamide levels in the PAG after intra-PAG injection. The format is in vivo. As to conditions: rat, 4 μg/rat intra-PAG, measured 20 min following injection.
From the text: as §1

The next assay deals with TRPV1 channels (Homo sapiens, UniProt Q8NER1). The experiment in a line: Blocking of TRPV1 channel activation by capsaicin. The format is cell-based. As to conditions: capsaicin 100 nM; FIG. 1A; read-out: IC50 against capsaicin.
Sequence of TRPV1 channels (Q8NER1 whole entry): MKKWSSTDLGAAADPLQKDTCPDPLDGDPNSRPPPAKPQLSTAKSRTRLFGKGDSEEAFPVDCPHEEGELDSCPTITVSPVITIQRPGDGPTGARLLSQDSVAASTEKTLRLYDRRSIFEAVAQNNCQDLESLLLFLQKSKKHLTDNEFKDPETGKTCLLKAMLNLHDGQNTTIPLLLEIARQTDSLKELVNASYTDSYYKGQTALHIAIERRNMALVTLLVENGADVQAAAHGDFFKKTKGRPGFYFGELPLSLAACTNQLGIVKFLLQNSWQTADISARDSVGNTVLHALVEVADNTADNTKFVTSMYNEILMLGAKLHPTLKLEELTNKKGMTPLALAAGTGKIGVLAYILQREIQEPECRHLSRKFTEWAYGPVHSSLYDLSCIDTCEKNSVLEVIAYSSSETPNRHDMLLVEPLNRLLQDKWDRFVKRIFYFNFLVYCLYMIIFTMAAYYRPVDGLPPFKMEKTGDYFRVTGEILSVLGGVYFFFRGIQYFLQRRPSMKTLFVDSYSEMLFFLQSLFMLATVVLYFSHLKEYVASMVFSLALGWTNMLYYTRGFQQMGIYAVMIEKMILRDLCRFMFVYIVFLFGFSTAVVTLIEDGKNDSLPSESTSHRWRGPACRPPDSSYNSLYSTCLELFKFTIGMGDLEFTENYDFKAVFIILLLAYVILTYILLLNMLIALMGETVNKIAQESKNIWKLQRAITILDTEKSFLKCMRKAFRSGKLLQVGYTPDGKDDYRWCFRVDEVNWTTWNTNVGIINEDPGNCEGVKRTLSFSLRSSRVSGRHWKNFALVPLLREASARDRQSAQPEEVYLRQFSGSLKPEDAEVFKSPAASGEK

Sequence of fatty acid amide hydrolase (FAAH) (P97612 whole entry): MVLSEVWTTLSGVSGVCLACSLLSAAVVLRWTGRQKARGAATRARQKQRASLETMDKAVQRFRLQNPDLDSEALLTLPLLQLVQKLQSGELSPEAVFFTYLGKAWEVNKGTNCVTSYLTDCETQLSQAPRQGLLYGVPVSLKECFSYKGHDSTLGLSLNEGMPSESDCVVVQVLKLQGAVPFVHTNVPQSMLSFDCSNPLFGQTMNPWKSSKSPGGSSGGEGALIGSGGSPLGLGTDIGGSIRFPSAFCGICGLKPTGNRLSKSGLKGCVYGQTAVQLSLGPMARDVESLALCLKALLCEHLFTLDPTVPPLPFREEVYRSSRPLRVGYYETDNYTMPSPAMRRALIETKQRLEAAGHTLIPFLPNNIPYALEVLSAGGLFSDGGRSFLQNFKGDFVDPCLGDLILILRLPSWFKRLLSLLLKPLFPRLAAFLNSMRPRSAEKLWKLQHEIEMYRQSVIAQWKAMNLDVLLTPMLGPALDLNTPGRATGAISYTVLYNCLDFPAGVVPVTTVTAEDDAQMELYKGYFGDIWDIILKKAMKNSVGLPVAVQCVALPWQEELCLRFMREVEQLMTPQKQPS

Regarding `CCCCCC=CCC=CCC=CCC=CCCCC(=O)NCCc1c[nH]c2ccc(O)cc12` [AA-5-HT, N-arachidonoyl-serotonin], in assay [1], the “type of FAAH inhibition” value is “mixed inhibitors”. Moreover, the “nociceptive response to formalin” value in assay [2] (4 μg/rat injected directly into PAG) is listed as “potently inhibits both phases”. Further, in assay [2] (intra-PAG, with AM251 (nmol/rat)), the “anti-hyperalgesic effect in presence of CB1 receptor antagonist AM251” value is listed as “counteracted”. For the same compound, the “anti-hyperalgesic effect in presence of TRPV1 antagonist capsazepine” value in assay [2] (intra-PAG, with capsazepine 6 nmol/rat) is listed as “occluded”. Also, the “nocifensive response to formalin” value in assay [3] was “selectively block the 2nd, inflammatory phase”. Besides, the “anandamide levels in the PAG” value in the assay on anandamide levels is recorded as “elevated”. Further, the pIC50 on TRPV1 channels is 6.89.

For orientation: pIC50 means −log10 of the IC50, conventionally taken in molar units.

For the origin of these results see US20070259945A1, “METHOD FOR TREATING PAIN” (ALLERGAN, INC., priority 2005, published 2007).
